Test results taken from patent US20200187502A1, “MICROBIOCIDAL OXADIAZOLE DERIVATIVES” (SYNGENTA PARTICIPATIONS AG, priority 2017, published 2020).

Legend:
[1] = tested on: Glomerella lacenarium (Colletotrichum lacenarium); experiment: Fungicidal activity, liquid culture, cucumber preventative (anthracnose); assay type: cell-based; conditions: 20 ppm in the applied formulation, liquid culture in PDB, inhibition of growth measured photometrically 3 to 4 days after application, compared to untreated control, read-out: disease control
How it was run: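 Cryostored conidia mixed into potato dextrose broth and added to DMSO compound solution in microtiter plates. Incubated at 24 °C. Growth inhibition read photometrically 3–4 days after application as percent activity versus untreated check.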

Phakopsora pachyrhizi = experiment: Fungicidal activity, soybean leaf disc preventative (Asian soybean rust); assay type: in vivo; conditions: foliar, 200 ppm in the applied formulation, soybean leaf disks, compared to untreated control, 12 to 14 days after application, read-out: disease control
Description: Leaf disks or leaf segments of various plant species are cut from plants grown in a greenhouse. The cut leaf disks or segments are placed in multiwell plates (24-well format) onto water agar. The leaf disks are sprayed with a test solution before (preventative) or after (curative) inoculation. Compounds to be tested are prepared as DMSO solutions (max. 10 mg/ml) which are diluted to the appropriate concentration with 0.025% Tween20 just before spraying. The inoculated leaf disks or segments are incubated under defined conditions (temperature, relative humidity, light, etc.) according to the respective test system. A single evaluation of disease level is carried out 3 to 14 days after inoculation, depending on the pathosystem. Percent disease control relative to the untreated check leaf disks or segments is then calculated.
Soybean leaf disks are placed on water agar in multiwell plates (24-well format) and sprayed with the formulated test compound diluted in water. One day after application leaf discs are inoculated by spraying a spore suspension on the lower leaf surface. After an incubation period in a climate cabinet of 24-36 hours in darkness at 20° C. and 75% rh leaf disc are kept at 20° C. with 12 h light/day and 75% rh. The activity of a compound is assessed as percent disease control compared to untreated when an appropriate level of disease damage appears in untreated check leaf disks (12 to 14 days after application).
The following compounds at 200 ppm in the applied formulation give at least 80% disease control in this test when compared to untreated control leaf disks under the same conditions, which show extensive disease development.

[2] = tested on: Puccinia recondita f. Sp. Tritici; experiment: Fungicidal activity, wheat leaf disc curative (brown rust); assay type: in vivo; conditions: foliar, 200 ppm in the applied formulation, wheat leaf segments cv. Kanzler, curative (applied 1 day after inoculation), compared to untreated control, 6 to 8 days after application, read-out: disease control
How it was run: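 Curative test: wheat leaf segments cv. Kanzler on agar inoculated with spore suspension, kept dark at 19 °C/75% RH, then sprayed 1 day post-inoculation with compound diluted in water. Incubated at 19 °C, 75% RH, 12 h light/dark; percent disease control versus untreated scored 6–8 days after application.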

[3] = tested on: Puccinia recondita f. Sp. Tritici; experiment: Fungicidal activity, wheat leaf disc preventative (brown rust); assay type: in vivo; conditions: foliar, 200 ppm in the applied formulation, wheat leaf segments cv. Kanzler, compared to untreated control, 7 to 9 days after application, read-out: disease control
How it was run: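 Wheat cv. Kanzler leaf segments on agar were sprayed with formulated compound in water, then inoculated with spores 1 day later. Incubated at 19° C, 75% rh, 12 h light/12 h dark; percent disease control versus untreated scored 7 to 9 days after application.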

COC(C)C(=O)N(Cc1ccc(-c2noc(C(F)(F)F)n2)s1)OC (stereo not drawn) [Compound 1.1, N,2-dimethoxy-N-[[5-[5-(trifluoromethyl)-1,2,4-oxadiazol-3-yl]-2-thienyl]methyl]propanamide]
≥ 80%: inhibition of growth at 20 ppm [1] | pest or weed control at 200 ppm (Phakopsora pachyrhizi) | pest or weed control at 200 ppm [2] | pest or weed control at 200 ppm [3]

CON(Cc1ccc(-c2noc(C(F)(F)F)n2)s1)C(=O)C1CC1 [Compound 1.4, N-methoxy-N-[[5-[5-(trifluoromethyl)-1,2,4-oxadiazol-3-yl]-2-thienyl]methyl]cyclopropanecarboxamide]
≥ 80%: inhibition of growth at 20 ppm [1] | pest or weed control at 200 ppm (Phakopsora pachyrhizi) | pest or weed control at 200 ppm [2] | pest or weed control at 200 ppm [3]

CON(Cc1ccc(-c2noc(C(F)(F)F)n2)s1)C(=O)CNC(C)=O [Compound 1.7, 2-acetamido-N-methoxy-N-[[5-[5-(trifluoromethyl)-1,2,4-oxadiazol-3-yl]-2-thienyl]methyl]acetamide]
≥ 80%: inhibition of growth at 20 ppm [1] | pest or weed control at 200 ppm (Phakopsora pachyrhizi) | pest or weed control at 200 ppm [2] | pest or weed control at 200 ppm [3]

CON(Cc1ccc(-c2noc(C(F)(F)F)n2)s1)C(=O)C1CC1(F)F (stereo not drawn) [Compound 1.8, 2,2-difluoro-N-methoxy-N-[[5-[5-(trifluoromethyl)-1,2,4-oxadiazol-3-yl]-2-thienyl]methyl]cyclopropanecarboxamide]
≥ 80%: inhibition of growth at 20 ppm [1] | pest or weed control at 200 ppm (Phakopsora pachyrhizi) | pest or weed control at 200 ppm [2] | pest or weed control at 200 ppm [3]

COCC(=O)N(Cc1ccc(-c2noc(C(F)(F)F)n2)s1)OC [Compound 1.9, N,2-dimethoxy-N-[[5-[5-(trifluoromethyl)-1,2,4-oxadiazol-3-yl]-2-thienyl]methyl]acetamide]
≥ 80%: inhibition of growth at 20 ppm [1] | pest or weed control at 200 ppm (Phakopsora pachyrhizi) | pest or weed control at 200 ppm [2] | pest or weed control at 200 ppm [3]

CON(Cc1ccc(-c2noc(C(F)(F)F)n2)s1)C(=O)C1CCOC1 (stereo not drawn) [Compound 1.10, N-methoxy-N-[[5-[5-(trifluoromethyl)-1,2,4-oxadiazol-3-yl]-2-thienyl]methyl]tetrahydrofuran-3-carboxamide]
≥ 80%: inhibition of growth at 20 ppm [1] | pest or weed control at 200 ppm (Phakopsora pachyrhizi) | pest or weed control at 200 ppm [2] | pest or weed control at 200 ppm [3]

CON(Cc1ccc(-c2noc(C(F)(F)F)n2)s1)C(=O)C(C)C [Compound 1.26, N-methoxy-2-methyl-N-[[5-[5-(trifluoromethyl)-1,2,4-oxadiazol-3-yl]-2-thienyl]methyl]propanamide]
≥ 80%: inhibition of growth at 20 ppm [1] | pest or weed control at 200 ppm (Phakopsora pachyrhizi) | pest or weed control at 200 ppm [3]

CC(=O)NCC(=O)NCc1ccc(-c2noc(C(F)(F)F)n2)s1 [Compound 2.2, 2-acetamido-N-[[5-[5-(trifluoromethyl)-1,2,4-oxadiazol-3-yl]-2-thienyl]methyl]acetamide]
≥ 80%: pest or weed control at 200 ppm (Phakopsora pachyrhizi)

CCN(Cc1ccc(-c2noc(C(F)(F)F)n2)s1)C(=O)COC [Compound 4.22, N-ethyl-2-methoxy-N-[[5-[5-(trifluoromethyl)-1,2,4-oxadiazol-3-yl]-2-thienyl]methyl]acetamide]
≥ 80%: inhibition of growth at 20 ppm [1] | pest or weed control at 200 ppm (Phakopsora pachyrhizi) | pest or weed control at 200 ppm [3]

CCN(Cc1ccc(-c2noc(C(F)(F)F)n2)s1)C(=O)CC(F)(F)F [Compound 4.30, N-ethyl-3,3,3-trifluoro-N-[[5-[5-(trifluoromethyl)-1,2,4-oxadiazol-3-yl]-2-thienyl]methyl]propanamide]
≥ 80%: inhibition of growth at 20 ppm [1] | pest or weed control at 200 ppm (Phakopsora pachyrhizi) | pest or weed control at 200 ppm [2]

CCN(Cc1ccc(-c2noc(C(F)(F)F)n2)s1)C(C)=O [Compound 4.31, N-ethyl-N-[[5-[5-(trifluoromethyl)-1,2,4-oxadiazol-3-yl]-2-thienyl]methyl]acetamide]
≥ 80%: inhibition of growth at 20 ppm [1] | pest or weed control at 200 ppm (Phakopsora pachyrhizi) | pest or weed control at 200 ppm [3]

CCC(=O)N(Cc1ccc(-c2noc(C(F)(F)F)n2)s1)C(C)C [Compound 4.46, N-isopropyl-N-[[5-[5-(trifluoromethyl)-1,2,4-oxadiazol-3-yl]-2-thienyl]methyl]propanamide]
≥ 80%: inhibition of growth at 20 ppm [1] | pest or weed control at 200 ppm (Phakopsora pachyrhizi) | pest or weed control at 200 ppm [2]

CC(=O)N(Cc1ccc(-c2noc(C(F)(F)F)n2)s1)C(C)C [Compound 4.51, N-isopropyl-N-[[5-[5-(trifluoromethyl)-1,2,4-oxadiazol-3-yl]-2-thienyl]methyl]acetamide]
≥ 80%: inhibition of growth at 20 ppm [1] | pest or weed control at 200 ppm (Phakopsora pachyrhizi) | pest or weed control at 200 ppm [2]

CN(Cc1ccc(-c2noc(C(F)(F)F)n2)s1)C(=O)N1CCCO1 [Compound 5.56, N-methyl-N-[[5-[5-(trifluoromethyl)-1,2,4-oxadiazol-3-yl]-2-thienyl]methyl]isoxazolidine-2-carboxamide]
≥ 80%: inhibition of growth at 20 ppm [1] | pest or weed control at 200 ppm (Phakopsora pachyrhizi) | pest or weed control at 200 ppm [3]

CCN(Cc1ccc(-c2noc(C(F)(F)F)n2)s1)S(=O)(=O)CCOC [Compound 6.12, N-ethyl-2-methoxy-N-[[5-[5-(trifluoromethyl)-1,2,4-oxadiazol-3-yl]-2-thienyl]methyl]ethanesulfonamide]
≥ 80%: inhibition of growth at 20 ppm [1] | pest or weed control at 200 ppm (Phakopsora pachyrhizi) | pest or weed control at 200 ppm [3]

CCN(Cc1ccc(-c2noc(C(F)(F)F)n2)s1)S(=O)(=O)CC [Compound 6.14, N-ethyl-N-[[5-[5-(trifluoromethyl)-1,2,4-oxadiazol-3-yl]-2-thienyl]methyl]ethanesulfonamide]
≥ 80%: inhibition of growth at 20 ppm [1] | pest or weed control at 200 ppm (Phakopsora pachyrhizi)

CCN(Cc1ccc(-c2noc(C(F)(F)F)n2)s1)S(=O)(=O)N(C)C [Compound 6.18, N-(dimethylsulfamoyl)-N-[[5-[5-(trifiuoromethyl)-1,2,4-oxadiazol-3-yl]-2-thienyl]methyl]ethanamine]
≥ 80%: inhibition of growth at 20 ppm [1] | pest or weed control at 200 ppm (Phakopsora pachyrhizi) | pest or weed control at 200 ppm [3]

CCCS(=O)(=O)N(CC)Cc1ccc(-c2noc(C(F)(F)F)n2)s1 [Compound 6.20, N-ethyl-N-[[5-[5-(trifluoromethyl)-1,2,4-oxadiazol-3-yl]-2-thienyl]methyl]propane-1-sulfonamide]
≥ 80%: inhibition of growth at 20 ppm [1] | pest or weed control at 200 ppm (Phakopsora pachyrhizi) | pest or weed control at 200 ppm [3]

CN(Cc1ccc(-c2noc(C(F)(F)F)n2)s1)S(=O)(=O)Cc1ccccc1 [Compound 6.22, N-methyl-1-phenyl-N-[[5-[5-(trifluoromethyl)-1,2,4-oxadiazol-3-yl]-2-thienyl]methyl]methanesulfonamide]
≥ 80%: inhibition of growth at 20 ppm [1] | pest or weed control at 200 ppm (Phakopsora pachyrhizi) | pest or weed control at 200 ppm [3]

CC(C)CC(=O)C(=O)N(C)Cc1ccc(-c2noc(C(F)(F)F)n2)s1 [Compound 6.51, N,4-dimethyl-2-oxo-N-[[5-[5-(trifluoromethyl)-1,2,4-oxadiazol-3-yl]-2-thienyl]methyl]pentanamide]
≥ 80%: inhibition of growth at 20 ppm [1] | pest or weed control at 200 ppm [2] | pest or weed control at 200 ppm [3]

CN(Cc1ccc(-c2noc(C(F)(F)F)n2)s1)C(=O)C(=O)c1cccs1 [Compound 6.52, N-methyl-2-oxo-2-(2-thienyl)-N-[[5-[5-(trifluoromethyl)-1,2,4-oxadiazol-3-yl]-2-thienyl]methyl]acetamide]
≥ 80%: inhibition of growth at 20 ppm [1] | pest or weed control at 200 ppm [2] | pest or weed control at 200 ppm [3]

CCC(=O)C(=O)N(Cc1ccc(-c2noc(C(F)(F)F)n2)s1)C1CC1 [Compound 6.56, N-cyclopropyl-2-oxo-N-[[5-[5-(trifluoromethyl)-1,2,4-oxadiazol-3-yl]-2-thienyl]methyl]butanamide]
≥ 80%: inhibition of growth at 20 ppm [1] | pest or weed control at 200 ppm [2] | pest or weed control at 200 ppm [3]

O=C(Cc1ccccc1)C(=O)N(Cc1ccc(-c2noc(C(F)(F)F)n2)s1)C1CC1 [Compound 6.57, N-cyclopropyl-2-oxo-3-phenyl-N-[[5-[5-(trifluoromethyl)-1,2,4-oxadiazol-3-yl]-2-thienyl]methyl]propanamide]
≥ 80%: inhibition of growth at 20 ppm [1] | pest or weed control at 200 ppm [2] | pest or weed control at 200 ppm [3]
